According to patent US9238797B2, “Method for production of pluripotent stem cell” (TAKARA BIO INC., priority 2008, dated 2016):

Columns and labels:
[1] = test system: human adult skin fibroblast; assay: iPS cell colony induction, methylation inhibitor treatment (Example 1); conditions: 5-aza-2′-deoxycytidine 1 μM for 2 days in medium for ES cells, 28th day of culture
Description: Each 700 μL of the virus solution prepared in Preparation Example 2 was added to each well of the Retronectin-immobilized culture plate prepared in (1) in a combination of Table 3, respectively, and this was centrifuged at 32° C. and 2,000×g for 2 hours.
Thereafter, the supernatant was removed from each well, washed with PBS once, and each 2 mL of human adult skin fibroblast (manufactured by Lonza) suspended in 10F-DMEM to 5×10^4 cells/mL was seeded on each well. After centrifugation at 32° C. and 500×g for 10 minutes, culturing was initiated in a CO2 incubator at 37° C. (0 day of culture).
Gene transfer for the second time was carried out on the first day of culture. Each 700 μL of virus solutions prepared by Preparation Example 2 were mixed in a combination of Table 3, and polybrene (hexadimethrine.bromide; manufactured by Aldrich) was added to a final concentration of 8 μg/mL to prepare a retrovirus vector mixed solution. The supernatant was removed from a culture plate which had been cultured in (2), and this retrovirus vector mixed solution was added. After culturing in a CO2 incubator at 37° C. for 4 hours, 2 mL of 10F-DMEM was added. After further culturing for 2 days, the supernatant was removed, 2 mL of 10F-DMEM was added, and culturing was continued.
The gene-introduced cell on the seventh day of culture made in (3) was recovered, and suspended in 10F-DMEM to 5×10^4 cells/mL. 10 mL of this suspension was seeded on the feeder cell, and culturing was continued.
On the eighth day of culture (after culturing for 1 day from seeding on the feeder cell), the supernatant was removed, and 10 mL of DMEM not containing serum (0F-DMEM: obtained by removing bovine fetal serum from 10F-DMEM) was added under Protein starvation treatment conditions. […]
The number of a pluripotent stem cell (iPS cell) under each condition of protein starvation of treatment or methylation inhibitor treatment under each of conditions A, B and C was counted on the 28th day of culture.

[2] = test system: human adult skin fibroblast; assay: iPS cell colony induction, cell cycle arresting agent-3, NU6140 (Example 28); format: cell-based; conditions: 2 days, 28th day of culture, N=2
Description: In induction culturing of a pluripotent stem cell, substance treatment with […] (manufactured by ALEXIS BIOCHEMICALS) which is one of Cell cycle arresting agents was carried out, and influence on an induction efficiency was studied.
According to the same manner as that of Example 1-(1), immobilization of Retronectin on a culture plate was carried out, provided that a non-treatment 12-well culture plate (manufactured by Becton, Dickinson and Company) was used, and each 1 mL of a Retronectin solution was added to each well.
According to the same manner as that of Example 4-(2), gene transfer was carried out (day 0 of culturing), provided that each 1 mL of the virus solution was added to each well, by diluting 100-fold a solution obtained by three kinds of vectors at an equal amount, with 10F-DMEM.
(§1) On the sixth day of culture, according to the same manner as that of Example 5-(4), the gene-introduced cell was seeded on a feeder cell, and culturing was continued.
(§2) In addition, in a control, the substance was not added. After culturing for 2 days, the medium was exchanged with a medium for ES cells, and culturing was continued to the 28th day of culture.
(§3) In addition, the number in the Table indicates an average value of N=2.

[3] = test system: human adult skin fibroblast; assay: iPS cell colony induction, cell cycle arresting agent treatment (Example 3); format: cell-based; conditions: 2 days, 22nd day of culture
Description: According to the same manner as that of Example 1-(2), gene transfer was carried out (day 0 of culturing), provided that a plate was washed with PBS containing 1.5% human serum albumin, and centrifugation after cell seeding was not carried out. In addition, gene transfer was carried out in a combination of a retrovirus vector DON5-am-OCT4-IR-SOX2, DON5-am-LIN28-IR-NANOG, or DON5-am-KLF4.
On the seventh day of culture, according to the same manner as that of Example 1-(4), the gene-introduced cell was seeded on a feeder cell, and culturing was continued.
In addition, the agent was not added to a control. After culturing for 2 days, the medium was exchanged with a medium for ES cells, and culturing was continued until the 22nd day of culture.

[4] = test system: human adult skin fibroblast; assay: iPS cell colony induction, DHCP and GM (Example 29); format: cell-based; conditions: 10 μM, 2 days; 26th day of culture; N=2
Description: In induction culturing of a pluripotent stem cell, substance treatment with a compound DHCP produced by heating a uronic acid compound derived from an animal and a plant (International Publication No. 98/13328 pamphlet), and GM in which glutathione is added to DHCP (International Publication No. 98/39291 pamphlet) was carried out, and influence on an induction efficiency was studied.
According to the same manner as that of Example 4-(2), gene transfer was carried out (day 0 of culturing), provided that each 1 mL of the virus solution was added to each well, by diluting 10-fold a solution obtained by three kinds of vectors at an equal amount, with 10F-DMEM.
as §1, §2, §3

[5] = test system: human adult skin fibroblast; assay: iPS cell colony induction, cell cycle arresting agent-2, Purvalanol A with or without Y27632 (Example 27); format: cell-based; conditions: 26th day of culture, N=2
Description: Regarding Purvalanol A being a Cell cycle arresting agent, for which the effect of promoting induction of a pluripotent stem cell was confirmed in Example 3, extension of the substance treatment term thereof and a combination use thereof with Y-27632 [(R) (+)-trans-4-(1-aminoethyl)-N-(4-pyridyl)cyclohexanecarboxyamide dihydrochloride] which is one of substances suppressing cell death were studied.
According to the same manner as that of Example 3-(2), gene transfer was carried out (day 0 of culturing), provided that the virus solution was added to each well by each 2 mL, by diluting 10-fold a solution obtained by mixing three kinds of vectors at an equal amount, with 10F-DMEM.
as §1
After completion of a substance treatment term, the medium was exchanged with a medium for ES cells, and culturing was continued until the 26th day of culture. […] Regarding the condition under which substance treatment for 4 days to 6 days was carried out, the medium was exchanged at two days interval also during a substance treatment term, and the substance was added at the same concentration every time.
as §3

## Nc1ncn([C@H]2C[C@H](O)[C@@H](CO)O2)c(=O)n1 [Methylation inhibitor, 5-aza-2′-deoxycytidine]
[1]; retrovirus combination Condition A
  Number of iPS cell colonies: 11
[1]; retrovirus combination Condition B
  Number of iPS cell colonies: 25
[1]; retrovirus combination Condition C
  Number of iPS cell colonies: 8

## CCN(CC)C(=O)c1ccc(Nc2nc(OCC3CCCCC3)c3[nH]cnc3n2)cc1 [NU6140]
[2]; 0.1 μM
  Number of iPS cell colonies: 22.5
[2]; 1 μM
  Number of iPS cell colonies: 28.0

## NC(=O)NO [Hydroxyurea, hydroxyurea]
[3]; 10 μM
  Number of iPS cell colonies: 26
[3]; 100 μM
  Number of iPS cell colonies: 13

## O=C1C=CC(O)C1O (centres unmarked) [DHCP, 4,5-dihydroxy-2-cyclopentene-1-one]
[4]
  Number of iPS cell colonies: 23.5

## CC(C)[C@H](CO)Nc1nc(Nc2cccc(Cl)c2)c2ncn(C(C)C)c2n1 [Purvalanol A]
[5]; Condition A: 2 μM Purvalanol A, 2 days
  Number of iPS cell colonies: 26.0
[5]; Condition B: 2 μM Purvalanol A, 4 days
  Number of iPS cell colonies: 25.5
[5]; Condition C: 2 μM Purvalanol A, 6 days
  Number of iPS cell colonies: 18.5
[3]; 0.1 μM
  Number of iPS cell colonies: 28
[3]; 0.5 μM
  Number of iPS cell colonies: 19
[3]; 2 μM
  Number of iPS cell colonies: 19
